# Key:
# [1] = topical application; cited from earlier work
# [2] = Permeation rate of morphine base through excised guinea pig skin with added LOVASTATIN; settings: LOVASTATIN 2%-wt. added; after 24 h; released in 0.9% salt solution, T=37° C., n=3
structure (smiles),measurement,setting,value
CC[C@H](C)C(=O)O[C@H]1C[C@@H](C)C=C2C=C[C@H](C)[C@H](CC[C@@H]3C[C@@H](O)CC(=O)O3)[C@H]21 [LOVASTATIN],DNA-synthesis in the epidermis,[1],increase
same,cholesterol level in the skin,[1],decrease
same,transepidermal loss of water,[1],increase
same,permeation rate of morphine base,[2],double

# Reference: patent US6379696B1, “Therapeutic preparation for the transdermal administration of active substances” (priority 1995, dated 2002)
